Converted amounts (≈) assume the structure as drawn.
Legend:
Assay type in all cases: functional, cell-based
Bel-7402 = experiment: In vitro cytotoxicity against Bel7402 cell line (human liver cancer) using MTT assay
KB = experiment: In vitro cytotoxicity against KB cell line (human epidermoid carcinoma of the nasopharynx) using MTT assay
HCT-8 = experiment: In vitro cytotoxicity against HCT-8 cell line (human colon cancer) using MTT assay

Row | Structure (SMILES) | IC50 (Bel-7402) | IC50 (KB) | IC50 (HCT-8)
1 | CC[C@@]1(O)C(=O)OCc2c1cc1n(c2=O)Cc2cc3cc(OCC[n+]4ccccc4)ccc3nc2-1 | 3.53 µg/mL | 0.33 µg/mL | 0.45 µg/mL
2 | CC[C@@]1(O)C(=O)OCc2c1cc1n(c2=O)Cc2cc3cc(OCCC[n+]4cccc(C(=O)O)c4)ccc3nc2-1 | 0.44 µg/mL | 0.32 µg/mL | 0.33 µg/mL
3 | CC[C@@]1(O)C(=O)OCc2c1cc1n(c2=O)Cc2cc3cc(OCCC[n+]4cccc(CO)c4)ccc3nc2-1 | 2.87 µg/mL | 0.31 µg/mL | 0.34 µg/mL
4 | CC[C@@]1(O)C(=O)OCc2c1cc1n(c2=O)Cc2cc3cc(OCCC[n+]4cccc(O)c4)ccc3nc2-1 | 3.92 µg/mL | 0.04 µg/mL | 0.03 µg/mL
5 | CC[C@@]1(O)C(=O)OCc2c1cc1n(c2=O)Cc2cc3cc(OCC[n+]4cccc(C=O)c4)ccc3nc2-1 | 3.73 µg/mL | 0.34 µg/mL | 0.35 µg/mL
6 | CC[C@@]1(O)C(=O)OCc2c1cc1n(c2=O)Cc2cc3cc(OCC[n+]4cccc(C(C)=O)c4)ccc3nc2-1 | 5 µg/mL | 3.21 µg/mL | 3.01 µg/mL
7 | CC[C@@]1(O)C(=O)OCc2c1cc1n(c2=O)Cc2cc3cc(OCCC[n+]4cccc(F)c4)ccc3nc2-1 | 5 µg/mL | 3.4 µg/mL | 2.02 µg/mL
8 | CC[C@@]1(O)C(=O)OCc2c1cc1n(c2=O)Cc2cc3cc(OCC[n+]4cccc(C(=O)O)c4)ccc3nc2-1 | 5 µg/mL | 0.31 µg/mL | 0.27 µg/mL
9 | CC[C@@]1(O)C(=O)OCc2c1cc1n(c2=O)Cc2cc3cc(OCCC[n+]4cccc(C(C)=O)c4)ccc3nc2-1 | 5 µg/mL | 3.13 µg/mL | 3.15 µg/mL
10 | CC[C@@]1(O)C(=O)OCc2c1cc1n(c2=O)Cc2cc3cc(OCCC[n+]4cccc(C=O)c4)ccc3nc2-1 | 0.46 µg/mL | 0.27 µg/mL | 0.17 µg/mL
11 | CC[C@@]1(O)C(=O)OCc2c1cc1n(c2=O)Cc2cc3c(CN(C)C)c(O)ccc3nc2-1.Cl [TOPOTECAN HYDROCHLORIDE] | 0.4 µg/mL | 0.02 µg/mL | 0.03 µg/mL
12 | CC[C@@]1(O)C(=O)OCc2c1cc1n(c2=O)Cc2cc3ccccc3nc2-1 [CAMPTOTHECIN] | 2.72 µg/mL (≈ 7.81 µM) | < 0.005 µg/mL | < 0.005 µg/mL
13 | CC[C@@]1(O)C(=O)OCc2c1cc1n(c2=O)Cc2cc3cc(OCC[n+]4cccc(O)c4)ccc3nc2-1 | 0.47 µg/mL | 0.32 µg/mL | 0.42 µg/mL
14 | CC[C@@]1(O)C(=O)OCc2c1cc1n(c2=O)Cc2cc3cc(OCCC[n+]4cccc(C)c4)ccc3nc2-1 | 0.04 µg/mL | < 0.005 µg/mL | < 0.005 µg/mL
15 | CC[C@@]1(O)C(=O)OCc2c1cc1n(c2=O)Cc2cc3cc(OCC[n+]4cccc(C)c4)ccc3nc2-1 | 0.47 µg/mL | 0.63 µg/mL | 1.42 µg/mL
16 | CC[C@@]1(O)C(=O)OCc2c1cc1n(c2=O)Cc2cc3cc(OCC[n+]4cccc(F)c4)ccc3nc2-1 | 5 µg/mL | 0.33 µg/mL | 0.38 µg/mL
17 | CC[C@@]1(O)C(=O)OCc2c1cc1n(c2=O)Cc2cc3cc(OCCC[n+]4ccccc4)ccc3nc2-1 | 0.44 µg/mL | 0.03 µg/mL | 0.03 µg/mL
18 | CC[C@@]1(O)C(=O)OCc2c1cc1n(c2=O)Cc2cc3cc(OCC[n+]4cccc(CO)c4)ccc3nc2-1 | 5 µg/mL | 3.28 µg/mL | 3.73 µg/mL
